Test results reported in PubChem BioAssay AID1963976 (Molecular Pharmacology Branch, DTP, NCI, 2024).

Tested on: 435261-313-R-J1-PDC tumor spheroid viability
Test: Anticancer human tumor 435261-313-R-J1-PDC patient-derived colon adenocarcinoma cell line growth inhibition [PI3K]
Settings: spheroids with HUVEC and MSC; for IC50: curve of first compound; for viability, T/C: stronger effect = lower value
Procedure, shortened: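 Viability of mixed-cell spheroids was determined after exposure to pairwise combinations, one partner being inavolisib, alpelisib, duvelisib or copanlisib. Highest tested concentration matched clinical Cmax where known and 10 microM where not, descending in half-log steps.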

[1] = second compound 0.0316 µM, first compound 0.000316 µM
[2] = second compound 0.0316 µM, first compound 0.001 µM
[3] = second compound 0.0316 µM, first compound 0.00316 µM
[4] = second compound 0.0316 µM, first compound 0.01 µM
[5] = second compound 0.0316 µM, first compound 0.0316 µM
[6] = second compound 0.0316 µM, first compound 0.1 µM
[7] = second compound 0.1 µM, first compound 0.000316 µM
[8] = second compound 0.1 µM, first compound 0.001 µM
[9] = second compound 0.1 µM, first compound 0.00316 µM
[10] = second compound 0.1 µM, first compound 0.01 µM
[11] = second compound 0.1 µM, first compound 0.0316 µM
[12] = second compound 0.1 µM, first compound 0.1 µM
[13] = second compound 0.316 µM, first compound 0.000316 µM
[14] = second compound 0.316 µM, first compound 0.001 µM
[15] = second compound 0.316 µM, first compound 0.00316 µM
[16] = second compound 0.316 µM, first compound 0.01 µM
[17] = second compound 0.316 µM, first compound 0.0316 µM
[18] = second compound 0.316 µM, first compound 0.1 µM
[19] = second compound 1 µM, first compound 0.000316 µM
[20] = second compound 1 µM, first compound 0.001 µM
[21] = second compound 1 µM, first compound 0.00316 µM
[22] = second compound 1 µM, first compound 0.01 µM
[23] = second compound 1 µM, first compound 0.0316 µM
[24] = second compound 1 µM, first compound 0.1 µM
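Further: spheroids exposed to compounds for 7 days.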

Work on `Cn1ncnc1[C@H]1c2n[nH]c(=O)c3cc(F)cc(c23)N[C@@H]1c1ccc(F)cc1` + CC(Nc1ncnc2nc[nH]c12)c1cc2cccc(Cl)c2c(=O)n1-c1ccccc1 yielded an IC50 (second compound 0.0316 µM) greater than 100 nM, an IC50 (second compound 0.1 µM) greater than 100 nM and an IC50 (second compound 0.316 µM) of 76.3 nM. It also gave an IC50 (second compound 1 µM) greater than 100 nM, an IC50 (second compound 3.16 µM) greater than 100 nM and an IC50 (second compound 10 µM) of 0.725 nM. The viability, T/C [1] was 116%, the viability, T/C [2] was 80.9% and the viability, T/C [3] was 76.1%. For the same compound, the viability, T/C [4] was 82.5%, the viability, T/C [5] was 59.2% and the viability, T/C [6] was 53.5%. For the same compound, the viability, T/C [7] was 90.6%, the viability, T/C [8] was 124% and the viability, T/C [9] was 104%. It also gave a viability, T/C [10] of 106%, a viability, T/C [11] of 85.2% and a viability, T/C [12] of 69.9%. It also gave a viability, T/C [13] of 81%, a viability, T/C [14] of 54.3% and a viability, T/C [15] of 71.4%. For the same compound, the viability, T/C [16] was 78.3%, the viability, T/C [17] was 62.1% and the viability, T/C [18] was 45.6%. The viability, T/C [19] was 80.3%, the viability, T/C [20] was 59.1% and the viability, T/C [21] was 80.9%. For the same compound, the viability, T/C [22] was 82.1%, the viability, T/C [23] was 56.6% and the viability, T/C [24] was 52.7%. It also gave a viability, T/C (second compound 3.16 µM, first compound 0.000316 µM) of 53.3%, a viability, T/C (second compound 3.16 µM, first compound 0.001 µM) of 57.3% and a viability, T/C (second compound 3.16 µM, first compound 0.00316 µM) of 75.8%. The viability, T/C (second compound 3.16 µM, first compound 0.01 µM) was 49.5%, the viability, T/C (second compound 3.16 µM, first compound 0.0316 µM) was 71.1% and the viability, T/C (second compound 3.16 µM, first compound 0.1 µM) was 56.2%. The viability, T/C (second compound 10 µM, first compound 0.000316 µM) was 58%, the viability, T/C (second compound 10 µM, first compound 0.001 µM) was 50.8% and the viability, T/C (second compound 10 µM, first compound 0.00316 µM) was 34.9%. For the same compound, the viability, T/C (second compound 10 µM, first compound 0.01 µM) was 35.4%, the viability, T/C (second compound 10 µM, first compound 0.0316 µM) was 39% and the viability, T/C (second compound 10 µM, first compound 0.1 µM) was 33.3%.

`Cn1ncnc1[C@H]1c2n[nH]c(=O)c3cc(F)cc(c23)N[C@@H]1c1ccc(F)cc1` + CC(Nc1ccc2c(c1)OCCn1cc(N3C(=O)OCC3C(F)F)nc1-2)C(N)=O gave an IC50 (second compound 0.00316 µM) greater than 100 nM, an IC50 (second compound 0.01 µM) greater than 100 nM and an IC50 (second compound 0.0316 µM) of 43.5 nM. For the same compound, the IC50 (second compound 0.1 µM) was 0.592 nM, the IC50 (second compound 0.316 µM) was less than 0.316 nM and the IC50 (second compound 1 µM) was less than 0.316 nM. The viability, T/C (second compound 0.00316 µM, first compound 0.000316 µM) was 105%, the viability, T/C (second compound 0.00316 µM, first compound 0.001 µM) was 88.5% and the viability, T/C (second compound 0.00316 µM, first compound 0.00316 µM) was 102%. For the same compound, the viability, T/C (second compound 0.00316 µM, first compound 0.01 µM) was 96.3%, the viability, T/C (second compound 0.00316 µM, first compound 0.0316 µM) was 83.9% and the viability, T/C (second compound 0.00316 µM, first compound 0.1 µM) was 69.4%. For the same compound, the viability, T/C (second compound 0.01 µM, first compound 0.000316 µM) was 74.4%, the viability, T/C (second compound 0.01 µM, first compound 0.001 µM) was 85.5% and the viability, T/C (second compound 0.01 µM, first compound 0.00316 µM) was 81.7%. For the same compound, the viability, T/C (second compound 0.01 µM, first compound 0.01 µM) was 95.8%, the viability, T/C (second compound 0.01 µM, first compound 0.0316 µM) was 68% and the viability, T/C (second compound 0.01 µM, first compound 0.1 µM) was 50.2%. The viability, T/C [1] was 67.4%, the viability, T/C [2] was 81.3% and the viability, T/C [3] was 92.6%. It also gave a viability, T/C [4] of 86.1%, a viability, T/C [5] of 53.6% and a viability, T/C [6] of 40.4%. For the same compound, the viability, T/C [7] was 55.6%, the viability, T/C [8] was 42.9% and the viability, T/C [9] was 41.9%. For the same compound, the viability, T/C [10] was 39.4%, the viability, T/C [11] was 36.1% and the viability, T/C [12] was 30.7%. For the same compound, the viability, T/C [13] was 21.6%, the viability, T/C [14] was 20.8% and the viability, T/C [15] was 26.2%. The viability, T/C [16] was 19.5%, the viability, T/C [17] was 20.6% and the viability, T/C [18] was 17.1%. The viability, T/C [19] was 18.3%, the viability, T/C [20] was 17.5% and the viability, T/C [21] was 17%. It also gave a viability, T/C [22] of 20.7%, a viability, T/C [23] of 20.2% and a viability, T/C [24] of 12.5%.
